# Source: article PMC12830947, “Structure and mechanism of the broad spectrum CRISPR-associated ring nuclease Crn4” (Nature Communications, 2025)
# Experiments:
# Crn4b = target: T1, Crn4b (Hyphomicrobiales bacterium, UniProt A0ACM8DFW0); experiment: HPLC ring nuclease assay; type: biochemical; conditions: pH 7.5, 250 mM NaCl, 1 mM EDTA, 37 C
# T1 construct: synthetic codon-optimised gene, pEhisV5TEV, E. coli C43(DE3); His tag removed by TEV; homodimer
# T1 sequence (A0ACM8DFW0 5-128): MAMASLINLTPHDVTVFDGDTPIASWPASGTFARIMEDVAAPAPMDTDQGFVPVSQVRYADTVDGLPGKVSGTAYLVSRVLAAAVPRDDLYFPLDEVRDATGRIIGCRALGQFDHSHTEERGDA
# Crn4a = target: T2, Crn4a (Actinomyces procaprae, UniProt Z9F5G1FLT2); experiment: X-ray co-crystal structure, […] A; type: binding; conditions: active site at dimer interface, one cA6 per dimer; two Mg2+; pH 5.5; inactive variant
# T2 construct: synthetic codon-optimised gene, pEhisV5TEV, E. coli C43(DE3); His tag removed by TEV; homodimer, one cA6 per dimer at the dimer interface
# T2 sequence (Z9F5G1FLT2 1-149): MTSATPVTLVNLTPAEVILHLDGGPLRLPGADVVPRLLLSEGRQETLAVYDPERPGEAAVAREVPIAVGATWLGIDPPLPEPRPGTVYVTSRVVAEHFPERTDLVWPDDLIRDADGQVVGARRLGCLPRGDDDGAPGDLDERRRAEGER
# [1] = target: Actinomyces procaprae Crn4a (CRISPR ring nuclease 4, subfamily a), wild type (Actinomyces procaprae); experiment: crystal structure; apo Crn4a at 13 mg/mL, sitting drop at 293 K, 0.1 M sodium acetate pH 4.5, 22% v/v PEG Smear Broad; 2.34 Å
# [2] = target: Actinomyces procaprae Crn4a H15A variant (Actinomyces procaprae); experiment: crystal structure; Crn4a H15A at 11 mg/mL with 1.2 molar excess of cA6, sitting drop at 293 K, 23.8% PEG 3350, 0.2 M magnesium chloride, 0.1 M Bis-Tris pH 5.5; 1.44 Å
# [3] = target: Hyphomicrobiales bacterium Crn4b (CRISPR ring nuclease 4, subfamily b), wild type (Hyphomicrobiales bacterium); experiment: crystal structure; apo Crn4b at 15 mg/mL, sitting drop at 293 K, 20% PEG 6000, 10% ethylene glycol, 0.1 M calcium chloride; 1.09 Å
compound,measurement,setting,value
Nc1ncnc2c1ncn2[C@@H]1O[C@@H]2COP(=O)(O)O[C@H]3[C@@H](O)[C@H](n4cnc5c(N)ncnc54)O[C@@H]3COP(=O)(O)O[C@H]3[C@@H](O)[C@H](n4cnc5c(N)ncnc54)O[C@@H]3COP(=O)(O)O[C@H]2[C@H]1O [cA3],HPLC ring nuclease assay,Crn4b; intermediate A3>P,Crn4b degraded cA4 and cA3 but was inactive against cA6
"Nc1ncnc2c1ncn2[C@@H]1O[C@@H]2COP(=O)(O)O[C@H]3[C@@H](O)[C@H](n4cnc5c(N)ncnc54)O[C@@H]3COP(=O)(O)O[C@H]3[C@@H](O)[C@H](n4cnc5c(N)ncnc54)O[C@@H]3COP(=O)(O)O[C@H]3[C@@H](O)[C@H](n4cnc5c(N)ncnc54)O[C@@H]3COP(=O)(O)O[C@H]2[C@H]1O [cA4, cyclic tetra-adenylate]",HPLC ring nuclease assay,Crn4b; sequential cleavage via A4>P,Crn4b degraded cA4 and cA3 but was inactive against cA6
"Nc1ncnc2c1ncn2[C@@H]1O[C@@H]2COP(=O)(O)O[C@H]3[C@@H](O)[C@H](n4cnc5c(N)ncnc54)O[C@@H]3COP(=O)(O)O[C@H]3[C@@H](O)[C@H](n4cnc5c(N)ncnc54)O[C@@H]3COP(=O)(O)O[C@H]3[C@@H](O)[C@H](n4cnc5c(N)ncnc54)O[C@@H]3COP(=O)(O)O[C@H]3[C@@H](O)[C@H](n4cnc5c(N)ncnc54)O[C@@H]3COP(=O)(O)O[C@H]3[C@@H](O)[C@H](n4cnc5c(N)ncnc54)O[C@@H]3COP(=O)(O)O[C@H]2[C@H]1O [cA6, cyclic hexa-adenylate]","X-ray co-crystal structure, 1.44 A",Crn4a,The structure of Crn4a in complex with cA6 shows the ligand binds at the dimer interface
"Actinomyces procaprae Crn4a (CRISPR ring nuclease 4, subfamily a), wild type (enzyme)",stoichiometry N,[1],2
Actinomyces procaprae Crn4a H15A variant (enzyme),stoichiometry N,[2],2
"Hyphomicrobiales bacterium Crn4b (CRISPR ring nuclease 4, subfamily b), wild type (enzyme)",stoichiometry N,[3],2
